{"source": "ChEMBL document CHEMBL3132769", "about": "“Fragment growing to retain or alter the selectivity of anchored kinase hinge-binding fragments” (Medchemcomm, 2014)", "key": {"[1]": {"organism": "Homo sapiens", "experiment": "Inhibition of human P70S6K catalytic domain expressed in baculovirus assessed as substrate phosphorylation using fluorescence-labelled peptides as substrate at 9 uM after 90 mins by microfluidic peptide phosphorylation assay"}, "[2]": {"target": "Protein kinase C beta type (Homo sapiens) (UniProt P05771)", "sequence (P05771 2-671 limits assumed)": "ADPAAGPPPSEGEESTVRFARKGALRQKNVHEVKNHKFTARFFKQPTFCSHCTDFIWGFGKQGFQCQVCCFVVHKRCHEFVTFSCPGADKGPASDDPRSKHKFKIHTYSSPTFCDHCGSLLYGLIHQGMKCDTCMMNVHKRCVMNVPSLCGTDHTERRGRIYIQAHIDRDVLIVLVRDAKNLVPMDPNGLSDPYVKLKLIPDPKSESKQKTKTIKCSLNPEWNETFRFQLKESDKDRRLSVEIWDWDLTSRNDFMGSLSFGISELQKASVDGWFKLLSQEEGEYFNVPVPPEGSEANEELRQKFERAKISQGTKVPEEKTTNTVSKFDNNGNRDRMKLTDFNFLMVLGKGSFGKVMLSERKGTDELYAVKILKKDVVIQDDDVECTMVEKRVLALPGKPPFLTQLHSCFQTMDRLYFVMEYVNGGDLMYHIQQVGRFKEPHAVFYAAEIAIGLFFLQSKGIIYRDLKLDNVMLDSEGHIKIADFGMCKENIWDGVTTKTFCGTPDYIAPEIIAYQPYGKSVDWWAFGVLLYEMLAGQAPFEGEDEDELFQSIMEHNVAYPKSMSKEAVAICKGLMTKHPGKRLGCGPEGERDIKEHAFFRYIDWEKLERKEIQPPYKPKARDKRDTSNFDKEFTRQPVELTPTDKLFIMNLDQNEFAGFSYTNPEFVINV", "experiment": "Inhibition of human full length PKC beta2 expressed in baculovirus assessed as substrate phosphorylation using fluorescence-labelled peptides as substrate at 9 uM after 90 mins by microfluidic peptide phosphorylation assay"}, "[3]": {"target": "Insulin-like growth factor 1 receptor (Homo sapiens) (UniProt P08069)", "experiment": "Inhibition of human IGF1R catalytic domain expressed in baculovirus assessed as substrate phosphorylation using fluorescence-labelled peptides as substrate at 0.06 uM after 90 mins by microfluidic peptide phosphorylation assay"}, "[4]": {"target": "Cyclin-dependent kinase 2 (Homo sapiens) (UniProt P24941)", "experiment": "Inhibition of human full length CDK2 expressed in baculovirus assessed as substrate phosphorylation using fluorescence-labelled peptides as substrate at […] after 90 mins by microfluidic peptide phosphorylation assay"}, "[5]": {"target": "Casein kinase I isoform delta (Homo sapiens) (UniProt P48730)", "sequence (P48730 whole entry, looked up, the tested form may be a part, canonical isoform)": "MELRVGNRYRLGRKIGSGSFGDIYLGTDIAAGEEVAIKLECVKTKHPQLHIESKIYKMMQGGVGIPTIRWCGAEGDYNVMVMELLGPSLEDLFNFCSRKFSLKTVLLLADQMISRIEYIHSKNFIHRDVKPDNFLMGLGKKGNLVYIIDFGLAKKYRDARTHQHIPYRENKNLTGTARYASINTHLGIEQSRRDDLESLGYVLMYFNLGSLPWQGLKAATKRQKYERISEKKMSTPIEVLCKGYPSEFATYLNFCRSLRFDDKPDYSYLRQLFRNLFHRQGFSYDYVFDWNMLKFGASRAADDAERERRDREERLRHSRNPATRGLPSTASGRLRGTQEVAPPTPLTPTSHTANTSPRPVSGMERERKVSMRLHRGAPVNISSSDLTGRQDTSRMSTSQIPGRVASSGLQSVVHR", "experiment": "Inhibition of human CK1D catalytic domain expressed in Escherichia coli cell assessed as substrate phosphorylation using fluorescence-labelled peptides as substrate at 420 uM after 90 mins by microfluidic peptide phosphorylation assay"}, "[6]": {"target": "Tyrosine-protein kinase ABL2 (Homo sapiens) (UniProt P42684)", "sequence (P42684 whole entry, the tested form may be a part)": "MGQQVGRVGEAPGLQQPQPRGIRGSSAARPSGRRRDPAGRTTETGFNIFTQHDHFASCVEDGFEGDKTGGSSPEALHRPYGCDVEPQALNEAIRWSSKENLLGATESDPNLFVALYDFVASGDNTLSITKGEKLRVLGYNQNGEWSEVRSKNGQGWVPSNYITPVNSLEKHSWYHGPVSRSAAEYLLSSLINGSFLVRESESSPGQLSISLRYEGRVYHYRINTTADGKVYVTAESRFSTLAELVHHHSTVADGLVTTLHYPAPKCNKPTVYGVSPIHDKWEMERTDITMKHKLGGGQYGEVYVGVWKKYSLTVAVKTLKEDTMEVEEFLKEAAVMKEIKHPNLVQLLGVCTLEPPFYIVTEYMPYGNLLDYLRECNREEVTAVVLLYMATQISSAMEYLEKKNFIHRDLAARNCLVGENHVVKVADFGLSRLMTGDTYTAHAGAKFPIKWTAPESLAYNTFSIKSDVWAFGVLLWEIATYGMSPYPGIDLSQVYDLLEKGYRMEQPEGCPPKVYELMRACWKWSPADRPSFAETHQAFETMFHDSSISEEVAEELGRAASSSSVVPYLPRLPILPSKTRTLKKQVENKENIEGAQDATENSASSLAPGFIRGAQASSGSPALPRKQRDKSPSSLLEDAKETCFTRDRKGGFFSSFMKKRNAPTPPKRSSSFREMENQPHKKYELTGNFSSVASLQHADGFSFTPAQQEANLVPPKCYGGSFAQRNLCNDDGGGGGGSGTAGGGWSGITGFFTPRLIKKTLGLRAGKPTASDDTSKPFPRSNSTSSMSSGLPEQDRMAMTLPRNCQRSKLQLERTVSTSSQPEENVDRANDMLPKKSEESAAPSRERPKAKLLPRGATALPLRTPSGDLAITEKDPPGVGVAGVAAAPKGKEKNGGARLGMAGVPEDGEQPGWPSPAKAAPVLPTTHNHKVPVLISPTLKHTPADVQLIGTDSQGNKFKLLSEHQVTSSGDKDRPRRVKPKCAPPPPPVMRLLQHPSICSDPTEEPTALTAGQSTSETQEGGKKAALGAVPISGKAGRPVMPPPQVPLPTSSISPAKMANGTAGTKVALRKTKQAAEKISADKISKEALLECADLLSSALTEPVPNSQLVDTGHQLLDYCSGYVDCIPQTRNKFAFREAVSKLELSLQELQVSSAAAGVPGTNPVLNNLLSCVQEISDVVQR", "experiment": "Inhibition of human truncated Arg expressed in baculovirus assessed as substrate phosphorylation using fluorescence-labelled peptides as substrate at 70 uM after 90 mins by microfluidic peptide phosphorylation assay"}, "[7]": {"organism": "Homo sapiens", "experiment": "Inhibition of human full length PKA expressed in baculovirus assessed as substrate phosphorylation using fluorescence-labelled peptides as substrate at 2 uM after 90 mins by microfluidic peptide phosphorylation assay"}, "[8]": {"target": "T1, Serine/threonine-protein kinase D3 (Homo sapiens) (UniProt O94806)", "T1 sequence (whole entry)": "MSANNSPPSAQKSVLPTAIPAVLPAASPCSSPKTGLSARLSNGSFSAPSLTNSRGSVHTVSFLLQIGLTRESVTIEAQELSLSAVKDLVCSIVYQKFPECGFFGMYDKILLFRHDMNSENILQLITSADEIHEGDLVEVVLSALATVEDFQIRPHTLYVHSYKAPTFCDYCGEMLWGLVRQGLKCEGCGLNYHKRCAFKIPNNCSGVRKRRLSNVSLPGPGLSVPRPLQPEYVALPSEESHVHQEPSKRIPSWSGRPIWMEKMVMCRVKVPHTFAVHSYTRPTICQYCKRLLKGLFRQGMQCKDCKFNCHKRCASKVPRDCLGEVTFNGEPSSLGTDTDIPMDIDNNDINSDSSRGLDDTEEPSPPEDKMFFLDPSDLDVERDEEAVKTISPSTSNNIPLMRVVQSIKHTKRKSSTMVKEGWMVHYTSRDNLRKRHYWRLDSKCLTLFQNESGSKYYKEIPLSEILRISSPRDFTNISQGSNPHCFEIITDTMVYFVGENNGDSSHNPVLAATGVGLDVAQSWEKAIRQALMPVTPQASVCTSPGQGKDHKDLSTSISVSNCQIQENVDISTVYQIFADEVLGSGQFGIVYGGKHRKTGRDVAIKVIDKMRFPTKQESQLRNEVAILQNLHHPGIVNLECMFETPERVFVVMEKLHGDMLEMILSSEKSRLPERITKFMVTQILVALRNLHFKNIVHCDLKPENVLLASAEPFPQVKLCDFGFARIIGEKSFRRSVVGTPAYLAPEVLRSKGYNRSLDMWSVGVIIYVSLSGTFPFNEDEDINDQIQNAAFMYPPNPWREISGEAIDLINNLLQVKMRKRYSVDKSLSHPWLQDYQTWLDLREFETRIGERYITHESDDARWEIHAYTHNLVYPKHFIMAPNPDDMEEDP", "experiment": "Inhibition of human full length PKD3 expressed in baculovirus assessed as substrate phosphorylation using fluorescence-labelled peptides as substrate at 2 uM after 90 mins by microfluidic peptide phosphorylation assay"}, "[9]": {"target": "Epidermal growth factor receptor (Homo sapiens) (UniProt P00533)", "sequence (P00533 whole entry, the tested form may be a part)": "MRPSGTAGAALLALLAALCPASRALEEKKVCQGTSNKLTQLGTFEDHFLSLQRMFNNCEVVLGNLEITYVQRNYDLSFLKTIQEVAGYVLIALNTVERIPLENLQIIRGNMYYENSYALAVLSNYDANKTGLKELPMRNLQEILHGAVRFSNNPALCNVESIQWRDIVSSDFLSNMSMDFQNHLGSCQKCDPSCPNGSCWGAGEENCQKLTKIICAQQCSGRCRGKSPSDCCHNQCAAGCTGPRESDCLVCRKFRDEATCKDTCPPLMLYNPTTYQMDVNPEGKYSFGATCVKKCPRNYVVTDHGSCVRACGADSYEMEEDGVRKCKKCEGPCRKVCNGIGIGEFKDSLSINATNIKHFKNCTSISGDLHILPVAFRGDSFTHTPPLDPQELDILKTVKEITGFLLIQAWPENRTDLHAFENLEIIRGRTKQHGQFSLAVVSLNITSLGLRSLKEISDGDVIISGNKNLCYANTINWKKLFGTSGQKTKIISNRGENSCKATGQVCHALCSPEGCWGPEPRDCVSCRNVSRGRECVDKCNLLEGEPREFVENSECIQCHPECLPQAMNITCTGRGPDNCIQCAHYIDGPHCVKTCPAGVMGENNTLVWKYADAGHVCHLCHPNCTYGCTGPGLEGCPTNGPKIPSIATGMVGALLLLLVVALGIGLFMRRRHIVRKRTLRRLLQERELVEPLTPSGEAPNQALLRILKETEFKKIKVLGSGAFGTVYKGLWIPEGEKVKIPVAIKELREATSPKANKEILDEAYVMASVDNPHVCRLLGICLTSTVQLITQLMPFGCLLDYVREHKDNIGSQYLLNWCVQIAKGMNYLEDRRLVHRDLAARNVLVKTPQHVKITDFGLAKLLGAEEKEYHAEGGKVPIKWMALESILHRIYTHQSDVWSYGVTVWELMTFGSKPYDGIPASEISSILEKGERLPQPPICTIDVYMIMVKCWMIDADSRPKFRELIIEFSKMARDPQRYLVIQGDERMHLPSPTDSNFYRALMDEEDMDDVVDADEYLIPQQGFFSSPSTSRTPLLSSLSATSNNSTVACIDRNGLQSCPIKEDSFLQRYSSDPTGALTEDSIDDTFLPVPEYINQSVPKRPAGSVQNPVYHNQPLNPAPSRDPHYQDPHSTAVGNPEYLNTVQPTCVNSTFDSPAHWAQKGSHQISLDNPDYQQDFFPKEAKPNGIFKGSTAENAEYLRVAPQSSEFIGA", "experiment": "Inhibition of human EGFR catalytic domain expressed in baculovirus assessed as substrate phosphorylation using fluorescence-labelled peptides as substrate at 8 uM after 90 mins by microfluidic peptide phosphorylation assay"}, "[10]": {"target": "T2, Interleukin-1 receptor-associated kinase 4 (Homo sapiens) (UniProt Q9NWZ3)", "T2 sequence (whole entry)": "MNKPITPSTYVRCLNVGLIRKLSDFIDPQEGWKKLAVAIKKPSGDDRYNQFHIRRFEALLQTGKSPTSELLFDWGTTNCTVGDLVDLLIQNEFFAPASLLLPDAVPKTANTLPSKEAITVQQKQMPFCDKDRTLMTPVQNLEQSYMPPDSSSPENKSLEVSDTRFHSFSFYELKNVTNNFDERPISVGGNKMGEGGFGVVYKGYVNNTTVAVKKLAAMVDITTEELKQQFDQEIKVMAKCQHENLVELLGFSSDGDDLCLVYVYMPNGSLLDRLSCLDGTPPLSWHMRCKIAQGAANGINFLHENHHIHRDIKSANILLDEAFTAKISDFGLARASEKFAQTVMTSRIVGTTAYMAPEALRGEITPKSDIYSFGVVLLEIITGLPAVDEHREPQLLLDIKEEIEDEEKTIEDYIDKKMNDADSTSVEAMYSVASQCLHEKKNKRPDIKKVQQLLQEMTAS", "experiment": "Inhibition of human IRAK4 catalytic domain expressed in baculovirus assessed as substrate phosphorylation using fluorescence-labelled peptides as substrate at 8 uM after 90 mins by microfluidic peptide phosphorylation assay"}, "[11]": {"target": "T3, cGMP-dependent protein kinase 1 (Homo sapiens) (UniProt Q13976)", "T3 sequence (whole entry)": "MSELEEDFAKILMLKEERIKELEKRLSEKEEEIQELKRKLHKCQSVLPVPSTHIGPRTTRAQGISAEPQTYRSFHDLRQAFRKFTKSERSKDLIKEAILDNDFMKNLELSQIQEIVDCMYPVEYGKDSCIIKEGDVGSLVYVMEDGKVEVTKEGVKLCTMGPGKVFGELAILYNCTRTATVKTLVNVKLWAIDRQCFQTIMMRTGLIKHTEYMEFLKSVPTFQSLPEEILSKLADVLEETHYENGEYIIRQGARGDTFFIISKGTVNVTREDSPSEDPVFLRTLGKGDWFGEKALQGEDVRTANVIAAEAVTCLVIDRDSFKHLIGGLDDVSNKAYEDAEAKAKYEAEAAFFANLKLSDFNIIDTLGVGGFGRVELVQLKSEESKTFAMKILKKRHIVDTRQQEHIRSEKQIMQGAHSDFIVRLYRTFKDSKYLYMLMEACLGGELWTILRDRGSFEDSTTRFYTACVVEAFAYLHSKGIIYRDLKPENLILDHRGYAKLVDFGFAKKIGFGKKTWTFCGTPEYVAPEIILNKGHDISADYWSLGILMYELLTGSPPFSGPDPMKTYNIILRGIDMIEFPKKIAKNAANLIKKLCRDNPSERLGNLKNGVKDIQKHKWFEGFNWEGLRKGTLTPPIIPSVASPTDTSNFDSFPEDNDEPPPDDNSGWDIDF", "experiment": "Inhibition of human full length PKG-1beta expressed in baculovirus assessed as substrate phosphorylation using fluorescence-labelled peptides as substrate at 8 uM after 90 mins by microfluidic peptide phosphorylation assay"}}, "data": [{"smiles": "NCC1CN(c2ncnc3[nH]c4cnccc4c23)CCO1", "note": "(stereo unspecified)", "values": [{"measurement": "inhibition", "setting": "[1]", "value": 14.5, "unit": "%"}, {"measurement": "inhibition", "setting": "[2]", "value": 23.5, "unit": "%"}]}, {"smiles": "NC1(Cc2ccc(Cl)cc2)CCN(c2ncnc3[nH]ccc23)CC1", "values": [{"measurement": "inhibition", "setting": "[3]", "value": 0, "unit": "%"}]}, {"smiles": "COC(=O)c1cnc(Nc2cnc(C#N)cn2)cc1NCC1CCNCC1", "values": [{"measurement": "inhibition", "setting": "[4]", "value": 6, "unit": "%"}]}, {"smiles": "c1nc(N2CCOCC2)c2nc[nH]c2n1", "values": [{"measurement": "inhibition", "setting": "[5]", "value": 81.5, "unit": "%"}]}, {"smiles": "CNCc1ccc(-c2ncnc3[nH]cnc23)cc1", "values": [{"measurement": "inhibition", "setting": "[6]", "value": 33, "unit": "%"}]}, {"smiles": "NC1CCN(c2ncnc3[nH]ccc23)CC1", "values": [{"measurement": "inhibition", "setting": "[7]", "value": 21, "unit": "%"}, {"measurement": "inhibition", "setting": "[8]", "value": 0, "unit": "%"}]}, {"smiles": "NCC1CCN(c2ncnc3[nH]ccc23)CC1", "values": [{"measurement": "inhibition", "setting": "[9]", "value": 33, "unit": "%"}, {"measurement": "inhibition", "setting": "[10]", "value": 25.5, "unit": "%"}, {"measurement": "inhibition", "setting": "[11]", "value": 76.5, "unit": "%"}]}]}
